# In patent publication US5236934A, “1,2,3,4-tetrahydroisoquinolines useful in the treatment of CNS disorders” (E. I. Du Pont de Nemours and Company, priority 1992, dated 1993):
# Several values for one entry are separate records, joined by “and”; a condition that tells them apart may be missing. Equal entries are not always repeated. Where two headings read alike, the source gives them in different places.
# T1: AT2 receptor (Rattus norvegicus, UniProt P35351)
# T1 construct: AT1 and AT2 receptor subtypes in rat adrenal cortex microsomes; from tissue; host or cells: rat adrenal cortical microsomes (13,000-102,000 g)
# T1 sequence (P35351 1-363): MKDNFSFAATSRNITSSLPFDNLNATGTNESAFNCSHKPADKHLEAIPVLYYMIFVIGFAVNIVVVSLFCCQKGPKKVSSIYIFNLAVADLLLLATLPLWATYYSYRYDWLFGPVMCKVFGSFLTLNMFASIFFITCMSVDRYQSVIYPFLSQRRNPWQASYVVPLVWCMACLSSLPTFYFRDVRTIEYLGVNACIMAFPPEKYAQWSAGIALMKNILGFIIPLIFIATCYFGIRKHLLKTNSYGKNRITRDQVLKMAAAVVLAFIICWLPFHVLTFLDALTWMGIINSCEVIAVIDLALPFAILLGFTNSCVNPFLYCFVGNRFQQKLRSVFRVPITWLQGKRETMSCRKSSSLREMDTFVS
# T2: AII receptors of rat adrenal medulla (Rattus norvegicus, UniProt P35351)
# T2 sequence (P35351 1-363): T1 sequence (P35351 1-363)
# B1: renin: an enzyme involved in endogenous AII biosynthesis (protein, UniProt P00797 67-406, looked up)
# Renin: LTLGNTTSSVILTNYMDTQYYGEIGIGTPPQTFKVVFDTGSSNVWVPSSKCSRLYTACVYHKLFDASDSSSYKHNGTELTLRYSTGTVSGFLSQDIITVGGITVTQMFGEVTEMPALPFMLAEFDGVVGMGFIEQAIGRVTPIFDNIISQGVLKEDVFSFYYNRDSENSQSLGGQIVLGGSDPQHYEGNFHYINLIKTGVWQIQMKGVSVGSSTLLCEDGCLALVDTGASYISGSTSSIEKLMEALGAKKRLFDYVVKCNEGPTLPDISFHLGGKEYTLTSADYVFQESYSSKKLCTLAIHAMDIPPPTGPTWALGATFIRKFYTEFDRRNNRIGFALAR
# Columns and labels:
# AT1 receptor = experiment: [125I]AII binding to AT1 receptor, rat adrenal cortical microsomes, in the presence of 10^-5 M EXP-655 (DuP 753-sensitive sites)
# Description: (§1) Procedures for the preparation of adrenal cortical microsomes and details of the binding assays are described in Chiu et al. (1989) J. Pharmacol. Exp. Ther. 250:867-874. The same procedures and conditions were used for adrenal medullary microsomes. […] After 60 min. of incubation, the reaction was terminated by addition of cold assay buffer. The bound and free radioactivity were rapidly separated through glass-fiber filters, and the trapped radioactivity was determined by gamma counting.
# AT2 receptor = molecular target: T1, AT2 receptor; experiment: [125I]AII binding to AT2 receptor, rat adrenal cortical microsomes, in the presence of 10^-5 M DuP 753 (DuP […]-insensitive sites)
# Description: as §1
# [1] = tested on: AII receptors of rat adrenal cortex; experiment: Total specific [125I]AII binding to rat adrenal cortical microsomes
# Description: After 60 min. of incubation, the reaction was terminated by addition of cold assay buffer. The bound and free radioactivity were rapidly separated through glass-fiber filters, and the trapped radioactivity was determined by gamma counting.
# [2] = tested on: AII receptors of rat adrenal medulla; experiment: [125I]AII binding to rat adrenal medullary microsomes; conditions: rat adrenal medullary microsomes; for binding resistant to displacement: of total binding, 60 min
# Description: as §1
# [3] = tested on: AII receptor subtypes of rat adrenal cortical membranes; experiment: [125I]AII binding to rat adrenal cortical membranes with and without DTT pretreatment
# Description: 102:685-696, except the above binding assay conditions were used.
# [4] = tested on: AII receptors of rat adrenal cortex; type: binding; conditions: autoradiography; DuP 753 or EXP-655 at 10^-6 M
# Description: (§2) Fresh tissue was frozen on powdered dry ice and stored at -70° C. until used. Sections were cut at 15 microns and thaw mounted onto gelatin subbed slides. […] Slides were placed under X-ray film (Kodak XAR-5) and exposed for 11/2 days before processing the film to produce the film autoradiograms. The slides were then fixed with paraformaldehyde vapor at 80° C. for two hours, dried under air, delipidated, and dipped in emulsion (Kodak NTB-2). The coated slides were exposed for 4-5 weeks, developed with Kodak D-19 and counter-stained with hemotoxylin-eosin to view the histology.
# [5] = tested on: AII binding sites of rat aortic smooth muscle cells; experiment: AII receptor binding in rat aortic smooth muscle cells
# [6] = molecular target: T2, AII receptors of rat adrenal medulla; conditions: autoradiography; DuP 753 or EXP-655 at 10^-6 M
# Description: as §2
# [7] = molecular target: T2, AII receptors of rat adrenal medulla; experiment: [125I]AII binding to rat adrenal medullary microsomes; parameters: from tissue; host or cells: rat adrenal medullary microsomes; conditions: rat adrenal medulla
# Description: as §1
# rabbit aorta = experiment: AII-induced rabbit aortic contractions; conditions: at concentrations of up to 10^-5 M
# [8] = Blood pressure lowering in hypertensive animals (renal artery-ligated hypertensive rats); type: in vivo, rat; conditions: doses up to 30 mg/kg, IV
# [9] = tested on: AII binding sites in the brain; experiment: Distribution of AII binding sites in brain slices
# Description: as §2
# [10] = tested on: AII receptors of rat adrenal cortex; conditions: reported in U.S. Pat. No. 4,812,462; cited from earlier work
# [11] = reported in U.S. Pat. No. 4,812,462; cited from earlier work
# pial arterial dilation = conditions: rat cranial window, cited from earlier work
# [12] = tested on: chick chorioallantoic membrane; conditions: cited from earlier work
# [13] = tested on: potassium current in cultured neurones; conditions: cited from earlier work
# [14] = tested on: collagenase activity in cultured cardiac fibroblasts; conditions: cited from earlier work
# [15] = tested on: trypsin activated collagenase in rat heart myocytes; conditions: cited from earlier work
# [16] = in vivo; cited from earlier work
# [17] = cited from earlier work; for effect on avoidance learning: IVT
# [18] = cited from earlier work
# [19] = injected into the dorsal neostriatum; cited from earlier work
# [20] = tested on: potassium stimulated release of [3H]ACh; conditions: in vitro; cited from earlier work
# [21] = rat adrenal cortex microsomes, in the presence of 10^-5 M EXP-655, read-out: IC50 AT1
molecule,measurement,setting,value
"O[C@H](CS)[C@H](O)CS (racemic) [DTT, dithiothreitol]",sensitivity of AT1 receptor to DTT,AT1 receptor,particularly sensitive to inactivation by DTT
same,sensitivity of AT2 receptor to DTT,AT2 receptor,resistant to DTT inactivation
CCCCc1nc(Cl)c(CO)n1Cc1ccc(-c2ccccc2-c2nn[nH]n2)cc1 [DuP 753],plateau of constant binding,"[1]; over a two-log concentration increase, 60 min",about 28 % of the total receptor-bound AII
same,inhibition of total AII binding,[1]; rat adrenal cortex,80%
same,IC50,"[1]; rat adrenal cortex, read-out: IC50 on the sensitive sites",~5 nM
same,IC50,"[1]; rat adrenal cortical microsomes, DuP 753-sensitive site, read-out: approximated IC50, first site of biphasic displacement",~5 nM
same,inhibition of binding,[2]; below 1×10^-6 M,10%
same,binding resistant to displacement,[2],About 90%
same,effect of DTT on inhibition of AII binding,[3]; 5 mM DTT,essentially abolished in the presence of DTT
same,labeling over the adrenal cortex,[4],significantly reduced
same,"sensitivity of AII binding sites, rat aortic smooth muscle cells",[5],primarily the DuP 753-sensitive AII binding sites (AT1)
same,labeling of the adrenal medulla,[6],not appreciably affected
same,inhibition of AII binding,[7],essentially inactive as an antagonist
Cc1cc(Cn2cnc3c2CC(C(=O)O)N(C(=O)C(c2ccccc2)c2ccccc2)C3)ccc1N (stereo not shown) [EXP-655],IC50,AT1 receptor; [21],~300000 nM and 300000 nM
same,IC50,"AT1 receptor; rat adrenal cortex, read-out: inhibitory constant IC50, AT1 site",~300000 nM
same,inhibition of the total specific AII binding,"[1]; at 3×10^-5 M, rat adrenal cortical microsomes",20%
same,inhibition of total AII binding,[1]; rat adrenal cortex,20%
same,binding resistant to displacement,[2],10%
same,antagonizing AII-induced rabbit aortic contractions,rabbit aorta,inactive
same,lowering blood pressure,[8],inactive
same,labeling over the adrenal cortex,[4],no apparent effect
same,sensitivity of AII binding sites in the brain,[9],"the majority of AII binding sites in the brain are DTT-insensitive, EXP-655-sensitive"
same,affinity for AII receptors as reported,[10],high affinity for AII receptors
same,antihypertensive activity as reported,[11],antihypertensive agent
same,block of pial arterial/arteriolar dilation,pial arterial dilation; listed as EXP 655,shown to block
same,block of angiotensin II-induced increase in microvascular density / angiogenesis,[12],shown to block
same,block of effect to increase potassium current,[13],shown to block
same,block of effect to inhibit collagenase activity,[14],shown to block
same,labeling of the adrenal medulla,[6],almost totally eliminated
same,inhibition of AII binding,[7],90%
COc1ccc(-c2cccc3c2CC(C(=O)O)N(C(=O)C(c2ccccc2)c2ccccc2)C3)cc1C (stereo not shown) [Example 25],IC50,AT1 receptor; [21],> 10000 nM
same,IC50,AT2 receptor,60 nM
"O=C(O)C1Cc2cc(Oc3ccccc3)ccc2CN1C(=O)C(c1ccccc1)c1ccccc1 (stereo not shown) [Example 32, 2-Diphenylacetyl-6-phenoxy-1,2,3,4-tetrahydroisoquinoline-3-carboxylic acid]",IC50,AT1 receptor; [21],> 10000 nM
same,IC50,AT2 receptor,70 nM
Cc1cc(Cn2cnc3c2CC(C(=O)O)N(C(=O)C(c2ccccc2)c2ccccc2)C3)ccc1N (stereo not shown) [PD123177],block of pial arterial/arteriolar dilation,pial arterial dilation,block the pial arterial dilation
same,block of angiotensin II induced inhibition of trypsin activated collagenase,[15],block the angiotensin II induced inhibition of trypsin activated collagenase
NCCCC[C@H](OP(=O)(O)CCCCc1ccccc1)C(=O)N1CCC[C@H]1C(=O)O [SQ 29852],memory of previously learned tasks,[16],protective effects on memory of previously learned tasks
CNCC(=O)N[C@@H](CCCN=C(N)N)C(=O)N[C@H](C(=O)N[C@@H](Cc1ccc(O)cc1)C(=O)N[C@H](C(=O)N[C@@H](Cc1cnc[nH]1)C(=O)N1CCC[C@H]1C(=O)N[C@@H](C)C(=O)O)C(C)C)C(C)C [Saralasin],preference for one AII receptor subtype relative to the other,AT1 receptor; AT1 vs AT2,no preference
same,concentration giving complete displacement of AII,[1]; rat adrenal cortical microsomes,100 nM
same,IC50,"[1]; rat adrenal cortical microsomes, read-out: IC50, monophasic",1 nM
same,effect of DTT on inhibition of AII binding,[3]; 5 mM DTT,not significantly altered by DTT
C[C@H](CS)C(=O)N1CCC[C@H]1C(=O)O [captopril],effect on avoidance learning,[17],prevented the renin-induced avoidance disruption
same,scopolamine-induced disruption of performance,[18]; daily treatment,prevented
same,"light/dark habituation performance, rate of acquisition",[18]; subchronic treatment,increased the rate of acquisition
NC(=O)[C@@H]1CCCN1C(=O)[C@H](Cc1cnc[nH]1)NC(=O)[C@@H]1CCC(=O)N1 [thyrotropin releasing hormone],effect on retention of PA response,[19],no effect
"AI: AI (compared with AII) (DRVYIHPFHL; Angiotensin-1; UniProt P01019 25-34, looked up)",effect on potassium-stimulated release of ACh,[20],not AI
"AII: octapeptide hormone which is a component of the renin-angiotensin system (DRVYIHPF; Angiotensin-2; UniProt P01019 25-32, looked up)",enhancement of inhibitory potency by DTT,[3]; 5 mM DTT,2.5 fold
same,IC50,"[3]; read-out: IC50 in the absence of DTT, without DTT",1 nM
same,labeling over the adrenal cortex,[4],potently inhibited the labeling
same,effect on retention of PA response,[19],disruption in retention of a PA response
same,effect on basal levels of ACh release,[20],without effects on basal levels
same,effect on potassium-stimulated release of ACh,[20],reduced potassium-stimulated release of ACh
same,labeling of the adrenal medulla,[6],potently inhibited the labeling
CGP42112A,block of angiotensin II-induced increase in microvascular density / angiogenesis,[12],block the increase in microvascular density
"[1-sarcosine, 8-threonine]angiotensin II",effect on potassium-stimulated release of ACh,[20],antagonized
lysine-8-vasopressin,effect on retention of PA response,[19],no effect
B1,effect on avoidance learning,[17],disruption of avoidance learning
same,AII level in CSF after renin,"[17]; increased from 40, renin IVT",about 5000 fmol per mL
